Molecular target: human STING WT (Homo sapiens (Human), UniProt Q86WV6)
Assay: Human STING WT binding assay (Cisbio HTRF)
Details: human STING WT protein 6His-tagged, 3 hours at RT, read-out: hSTING WT binding IC50
Protocol: Cisbio Bioassays' human STING WT binding assay (#64BDSTGPEG & 64BDSTGPEH, Cisbio) is for quantitative measurement of human STING WT ligand using HTRF® technology.
Negative control: Dispense 5 μL of diluent into each negative control well. Standard: Dispense 5 μL of each Human STING WT Standard 2′3′-cGAMP (Std 0-Std 7) into each standard well. Compound: Dispense 5 μL of compound into each compound well.
Negative control: Add 5 μL of detection buffer to all wells. Other wells: Add 5 μL of human STING WT protein 6His-tagged protein to all wells.
Add 10 μL of premixed STING WT ligand d2 reagent and 6His Tb antibody working solution to all wells.
Seal the plate and incubate 3 hours at RT or at Over Night if necessary.
Remove the plate sealer and read on an HTRF® compatible reader (PerkinElmer, USA). Results were analyzed with a two-wavelength signal ratio: intensity (665 nm)/intensity (620 nm).
Fit the data in GraphPad to obtain IC50 values using equation (2)
Y=Bottom+(Top−Bottom)/(1+10^((Log IC50−X)*Hill Slope)) Equation (2): […]
Y is HTRF Ratio and X is compound concentration.

Sequence of human STING WT (Q86WV6 whole entry): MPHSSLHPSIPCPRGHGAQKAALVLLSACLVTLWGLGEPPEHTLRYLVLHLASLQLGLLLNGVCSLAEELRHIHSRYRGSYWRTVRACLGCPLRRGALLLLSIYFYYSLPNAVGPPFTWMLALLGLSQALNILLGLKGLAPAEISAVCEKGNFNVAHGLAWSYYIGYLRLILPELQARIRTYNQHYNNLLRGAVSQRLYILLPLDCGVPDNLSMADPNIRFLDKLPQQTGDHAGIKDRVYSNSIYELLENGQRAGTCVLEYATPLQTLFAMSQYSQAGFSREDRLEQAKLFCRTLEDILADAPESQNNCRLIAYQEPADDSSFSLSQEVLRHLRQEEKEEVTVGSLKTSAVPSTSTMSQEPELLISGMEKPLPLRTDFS

Row | SMILES | IC50 [nM]
1 | COc1cc2c(c(Cl)c1OCCCOc1c(OC)cc3sc(C(=O)CCC(=O)O)cc3c1F)CN(C(=O)CCC(=O)O)C2 [Example 2, 4-(5-(3-((2-(3-carboxypropanoyl)-4-chloro-6-methoxyisoindolin-5-yl)oxy)propoxy)-4-fluoro-6-methoxybenzo[b]thiophen-2-yl)-4-oxobutanoic Acid] | 11.4
2 | COc1cc2c(c(F)c1OCCCOc1c(OC)cc3sc(C(=O)C[C@H](C)C(=O)O)cc3c1F)CN(C(=O)C[C@H](C)C(=O)O)C2 [Example 17, (S)-4-(5-(3-((2-((S)-3-carboxybutanoyl)-4-fluoro-6-methoxybenzo[b]thiophen-5-yl)oxy)propoxy)-4-fluoro-6-methoxyisoindolin-2-yl)-2-methyl-4-oxobutanoic Acid] | 0.19
3 | COc1cc2sc(C(=O)CCC(=O)O)cc2cc1OCCCOc1c(OC)cc2c(c1Cl)CN(C(=O)CCC(=O)O)C2 [Example 14, 4-(5-(3-((2-(3-carboxypropanoyl)-4-chloro-6-methoxyisoindolin-5-yl)oxy)propoxy)-6-methoxybenzo[b]thiophen-2-yl)-4-oxobutanoic Acid] | 46.6
4 | COc1cc2c(c(F)c1OCCCOc1c(OC)cc3sc(C(=O)CCC(=O)O)cc3c1F)CN(C(=O)CCC(=O)O)C2 [Example 4, 4-(5-(3-((2-(3-carboxypropanoyl)-4-fluoro-6-methoxybenzo[b]thiophen-5-yl)oxy)propoxy)-4-fluoro-6-methoxyisoindolin-2-yl)-4-oxobutanoic Acid] | 0.18
5 | C=C(COc1cc2c(cc1OC)CN(C(=O)CCC(=O)O)C2)COc1cc2cc(C(=O)CCC(=O)O)sc2cc1OC [Example 19, 4-(5-((2-(((2-(3-carboxypropanoyl)-6-methoxybenzo[b]thiophen-5-yl)oxy)methyl)allyl)oxy)-6-methoxyisoindolin-2-yl)-4-oxobutanoic Acid] | 54.6
6 | COc1cc2c(c(F)c1OCCCOc1c(OC)cc3sc(C(=O)CCC(=O)O)cc3c1Cl)CN(C(=O)CCC(=O)O)C2 [Example 3, 4-(5-(3-((2-(3-carboxypropanoyl)-4-chloro-6-methoxybenzo[b]thiophen-5-yl)oxy)propoxy)-4-fluoro-6-methoxyisoindolin-2-yl)-4-oxobutanoic Acid] | 8.4
7 | COc1cc2c(cc1OCCCOc1c(OC)cc3sc(C(=O)C[C@H](C)C(=O)O)cc3c1F)CN(C(=O)C[C@H](C)C(=O)O)C2 [Example 6, Sodium (S)-4-(5-(3-((2-((S)-3-carboxylatobutanoyl)-4-fluoro-6-methoxybenzo[b]thiophen-5-yl)oxy)propoxy)-6-methoxyisoindolin-2-yl)-2-methyl-4-oxobutanoate] | 0.36
8 | COc1cc2c(cc1OCCCOc1cc3cc(C(=O)NCCC(=O)O)sc3cc1OC)CN(C(=O)CCC(=O)O)C2 [Example 18, 4-(5-(3-((2-((2-carboxyethyl)carbamoyl)-6-methoxybenzo[b]thiophen-5-yl)oxy)propoxy)-6-methoxyisoindolin-2-yl)-4-oxobutanoic Acid] | 4.59
9 | COc1cc2c(cc1OCCCOc1nc3cc(C(=O)CCC(=O)O)sc3cc1OC)CN(C(=O)CCC(=O)O)C2 [Example 8, Sodium 4-(5-(3-((2-(3-carboxylatopropanoyl)-6-methoxyisoindolin-5-yl)oxy)propoxy)-6-methoxythieno[3,2-b]pyridin-2-yl)-4-oxobutanoate] | 0.65
10 | COc1cc2c(cc1OCCCOc1cc3cc(C(=O)CCC(=O)O)sc3cc1OC)CN(C(=O)CCC(=O)O)C2 [Example 1, 4-(5-(3-((2-(3-carboxypropanoyl)-6-methoxybenzo[b]thiophen-5-yl)oxy)propoxy)-6-methoxyisoindolin-2-yl)-4-oxobutanoic Acid] | 0.06
11 | C=C(COc1c(OC)cc2c(c1Cl)CN(C(=O)CCC(=O)O)C2)COc1c(OC)cc2sc(C(=O)CCC(=O)O)cc2c1F [Example 16, 4-(5-((2-(((2-(3-carboxypropanoyl)-4-chloro-6-methoxyisoindolin-5-yl)oxy)methyl)allyl)oxy)-4-fluoro-6-methoxybenzo[b]thiophen-2-yl)-4-oxobutanoic Acid] | > 150
12 | COc1cc2c(cc1OCCCOc1cc3cc(C(=O)CCC(=O)O)sc3cc1Br)CN(C(=O)CCC(=O)O)C2 [Example 9, 4-(5-(3-((6-bromo-2-(3-carboxypropanoyl)benzo[b]thiophen-5-yl)oxy)propoxy)-6-methoxyisoindolin-2-yl)-4-oxobutanoic Acid] | 2.23
13 | COc1cc2c(cc1OCCCOc1c(OC)cc3sc(C(=O)CCC(=O)O)cc3c1F)CN(C(=O)CCC(=O)O)C2 [Example 20, 4-(5-(3-((2-(3-carboxypropanoyl)-4-fluoro-6-methoxybenzo[b]thiophen-5-yl)oxy)propoxy)-6-methoxyisoindolin-2-yl)-4-oxobutanoic Acid] | 0.19
14 | COc1cc2c(cc1OCCCOc1cc3cc(C(=O)C[C@H](C)C(=O)O)sc3cc1OC)CN(C(=O)C[C@H](C)C(=O)O)C2 [Example 5, Sodium (S)-4-(5-(3-((2-((S)-3-carboxylatobutanoyl)-6-methoxybenzo[b]thiophen-5-yl)oxy)propoxy)-6-methoxyisoindolin-2-yl)-2-methyl-4-oxobutanoate] | 0.32
15 | COc1cc2sc(C(=O)CCC(=O)O)cc2cc1OCCCOc1c(OC)cc2c(c1F)CN(C(=O)CCC(=O)O)C2 [Example 10, 4-(5-(3-((2-(3-carboxypropanoyl)-4-fluoro-6-methoxyisoindolin-5-yl)oxy)propoxy)-6-methoxybenzo[b]thiophen-2-yl)-4-oxobutanoic Acid] | 0.28
16 | COc1cc2sc(C(=O)[C@H]3C[C@@H]3C(=O)O)cc2cc1OCCCOc1c(OC)cc2c(c1F)CN(C(=O)CCC(=O)O)C2 (relative stereo) [Example 21, trans-2-(5-(3-((2-(3-carboxypropanoyl)-4-fluoro-6-methoxyisoindolin-5-yl)oxy)propoxy)-6-methoxybenzo[b]thiophene-2-carbonyl)cyclopropane-1-carboxylic Acid] | 159
17 | COc1cc2c(cc1OCCCOc1cc3sc(C(=O)CCC(=O)O)cc3nc1OC)CN(C(=O)CCC(=O)O)C2 [Example 15, 4-(5-(3-((2-(3-carboxypropanoyl)-5-methoxythieno[3,2-b]pyridin-6-yl)oxy)propoxy)-6-methoxyisoindolin-2-yl)-4-oxobutanoic Acid] | 92.6
18 | COc1cc2c(nc1OCCCOc1nc3cc(C(=O)CCC(=O)O)sc3cc1OC)CN(C(=O)CCC(=O)O)C2 [Example 11, 4-(5-(3-((6-(3-carboxypropanoyl)-3-methoxy-6,7-dihydro-5H-pyrrolo[3,4-b]pyridin-2-yl)oxy)propoxy)-6-methoxythieno[3,2-b]pyridin-2-yl)-4-oxobutanoic Acid] | 2.54
